According to patent US9034576B2, “Systems and methods for measuring translation of target proteins in cells” (ANIMA CELL METROLOGY INC., priority 2009, dated 2015):

Legend:
[1] = system: premature termination codons (PTC); details: genetic disorders with premature termination codons; Welch E M et al, Nature 2007; cited from earlier work
CHO cells = test: Live cell tRNA:tRNA FRET imaging before and after cycloheximide treatment; format: cell-based; details: CHO cells transfected with rhodamine 110 (donor) and Cy3 (acceptor) labeled bulk yeast tRNA; same cells imaged prior to and following treatment
Experimental: (§1) Fluorescent labeled tRNA were then introduced into live HEK-293, HeLa and CHO cells, employing a transfection protocol. One day prior to the transfection experiment, the cells were seeded on fibronectin-coated glass slides in a 24-well plate. On the following day, the growth medium was removed and 0.5 ml of fresh medium was added to each well containing the sub-confluent monolayers. 10 minutes later, 0.1 ml of the labeled-tRNA mixed with the transfection reagent and serum-free media were added to each well. The plate was incubated at 37° C. in a 5% CO2 incubator for 6-8 hr, followed by fixation with 4% paraformaldehyde for 20 min and mounting using fluorescent mounting medium. The fixed cells on glass slides were then visualized employing a spinning disk confocal microscope.
(§2) In order to determine the imaging parameters to be employed in the following experiments, including the degree of non-specific signal stemming from the cross-stimulation of different fluorophores, cells were transfected with donor only and with acceptor only, and imaged in the exact conditions employed for the FRET measurement. The calibration coefficients for computing the NFret (corrected FRET) image were NFret=FRET−0.011*donor−0.004*acceptor. […]

HEK cells = test: as above; format: cell-based; details: HEK cells transfected with rhodamine 110 (donor) and Cy3 (acceptor) labeled bulk yeast tRNA; same cells imaged prior to and following treatment
Experimental: as §1, §2

Row | SMILES | amount of required protein produced [1] | FRET signal intensity (CHO cells) | FRET signal intensity (HEK cells)
1 | O=C(O)c1cccc(-c2noc(-c3ccccc3F)n2)c1 [PTC124] | 1-5 % of normal concentrations |  | 
2 | C[C@@H]1C[C@@H]([C@H](O)CC2CC(=O)NC(=O)C2)C(=O)[C@@H](C)C1 [cycloheximide] |  | increase in FRET signal intensity | increase in FRET signal intensity
